According to patent publication US5780505A, “Substituted N-arylmethylamino derivatives of cyclobutene-3, 4-diones” (American Home Products Corporation, priority 1997, dated 1998):
Like-named read-outs stand apart in the source and are kept apart here.

Key:
[1] = system: Isolated Rat Bladder Strips; assay: Inhibition of contractions in isolated rat bladder strips (KCl-enhanced contractile activity; smooth muscle relaxation); format: cell-based, Sprague-Dawley rats
Procedure, shortened: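 Bladder strips from Sprague-Dawley rats were held in 37 °C PSS (pH 7.4, 95% O2/5% CO2) at 1.5 g resting tension with isometric force recording. Contractions were enhanced by an extra 15 mM KCl, then cumulative compound concentrations were added, each measured over the last minute of 30 min. IC50 is 50% inhibition of pre-drug contractile activity from the concentration-response curve.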

[2] = system: hypertrophied bladder (detrussor) smooth muscle; assay: Inhibition of spontaneous contractions in vivo (conscious female rats with hypertrophied bladders, cystometry); set-up: species or system Female Sprague-Dawley rats; conditions: hypertrophied rat bladder model
Source text: In addition, we tested the ability of compounds to inhibit the hyperactivity of hypertrophied bladder (detrussor) smooth muscle in conscious female rats with hypertrophied bladders and thereby alleviate urinary incontinence in rats according to the following protocol described by Malmgren (A. Malmgren, K. E. Andersson, C. Sjogren, P. O. Andersson, Effects of pinacidil and Cromakalim (BRL 34915) on Bladder Function in Rats with Detrusor Instability, J. Urol. 142: 1134, 1989.):
Female Sprague-Dawley rats, ranging in weight from 190-210 g are used. Up to 25 animals are prepared each time. After developemnt of bladder hypertrophy 4-8 animals are used per test.
Compounds are dissolved in PEG-200 and administered by gastric gavage or intraveneously in a volume of 5 ml/kg. For primary screening all drugs are administered at the arbitrary dose of 10 mg/kg p.o. to groups of 4 rats.
The animals are anesthetized with halothane. Through a midline incision the bladder and urethra are exposed and a ligature of 4-0 silk is tied around the proximal urethra in the presence of a stainless steel rod (1 mm diameter) to produce a partial occlusion. The rod is then removed. The abdominal region is closed using surgical staples and each rat receives 150,000 units of bicillin C-R. The animals ar allowed six weeks to develop sufficient bladder hypertrophy. After six weeks, the ligature is removed under halothane anesthesia and a catheter (PE 60) with a cuff is placed in the dome of the bladder and secured with a purse string suture. The catheter is tunneled under the skin and exteriorized through an opening in the back of the neck. The abdominal incision is sutured and the free end of the catheter sealed. In order to prevent infections the rats receive an injection of bicillin C-R (150000 units/rat). Two days later the animals are used in cystometrical evaluations, The animals are placed in the metabolic cages and the catheter is attached (using a "T" connector) to a Statham pressure transducer (Model P23Db) and to a Harvard infusion pump. A plastic beaker attached to a force displacement transducer (Grass FTO3) is placed under the rat's cage to collect and record urine volume. Animals are allowed 15-30 min t rest before the saline infusion (20 ml/hr for 20 minutes) is started for the first cystometry period. Two hours after the first cystometry period, the rats are dosed with the vehicle or the test compound and one hour later a second cystometry is performed.
The following urodynamic variables are recorded:
Basal bladder pressure=the lowest bladder pressure during cystometry
Threshold pressure=bladder pressure immediately prior to micturition
Micturition volume=volume expelled
Micturition pressure=peak pressure during voiding
Spontaneous activity=mean amplitude of bladder pressure fluctuations during filling
Presentation of results: The mean value of each variable is calculated before and after compound administration. For each compound the changes in the variables measured are compared to the values obtained before treatment and expressed as percent inhibition. The data are also subjected to 2-way analysis of variance to determine significant (p<0.05) changes in the variable measured.
Criteria for Activity: The most characteristic finding in this rat model is spontaneous bladder contractions which develop during filling. The compounds which inhibit spontaneous contractions by at least 50% at 10 mg/kg p.o. or i.v. (arbitrary chosen dose) are considered active.

[3] = 0.5 h, isolated rat bladder strips, 15 mM additional KCl, 30 minute challenge, read-out: IC50 (50% inhibition of pre-drug contractile activity)

Cc1cccc(Cl)c1CNc1c(NC(C)(C)C)c(=O)c1=O [Example 31, 3-tert-Butylamino-4-(2-chloro-6-methyl-benzylamino)-cyclobut-3-ene-1,2-dion]
IC50 [1, 3]: 1100 ± 300 nM | % Red (F): percent reduction in the total number of spontaneous contractions ([2]; 10 mg/kg p.o.): -38 ± 13%

Cc1cc(Br)cc(C)c1CNc1c(NC(C)(C)C)c(=O)c1=O [Example 36, 3-(4-Bromo-2,6-dimethyl-benzylamino)-4-tert-butylamino-cyclobut-3-ene-1,2-dione]
IC50 [1, 3]: 290 ± 20 nM | % Red (F): percent reduction in the total number of spontaneous contractions ([2]; 3 mg/kg p.o.): -83 ± 9%

CCC(C)(C)Nc1c(NCc2ccc(C#N)cc2Cl)c(=O)c1=O [Example 76]
IC50 [1, 3]: 60 ± 14 nM | IC50 ([1]; Rattus norvegicus, second lot (mp 215.5-216.0° C., softens 211.5° C.), n = 6, read-out: IC50 of a second lot): 130 ± 30 nM | % Red (F): percent reduction in the total number of spontaneous contractions ([2]; 3 mg/kg p.o.): -57 ± 12%
